Data taken from patent US20240315991A1, “USES OF HNF4 ALPHA AGONISTS” (Sanford Burnham Prebys Medical Discovery Institute, priority 2023, published 2024).

How the values were obtained:
hepatic cytochrome C = assay: Western blotting of liver, cytochrome C; type: in vivo, mouse; details: HFD+NCT vs HFD, FIGS. 3D-3F
Experimental: (§1) NCT oral administration. Four-week-old male C57BL/6J (JAX cat #000664) mice were purchased from Jackson laboratory and were maintained in a 12 h light/dark cycle throughout the experiment. Prior to the experiments, mice were acclimated for 2 weeks. Six-week-old mice with similar body weights were randomized to a normal diet (NC), a high fat diet (HFD) (Research Diets, cat #D12492 60 kcal % fat) or HFD containing 4000 ppm NCT (HFD+NCT) (Research Diets, 60 kcal % fat+4000 ppm NCT), which was calculated to provide approximately 400 mg/kg/d NCT. HFD chow containing NCT was made with gray dye to distinguish it from regular HFD chow that had green dye. Mice for each treatment group were placed in separate cages. Equal amounts of fresh chow were provided every week to all mice. Body weight gain and food intake were measured every week for 10 weeks. After 10 weeks of chow treatment, mice were sacrificed for analysis. All animal experiments were approved by the Institutional Animal Care and Use Committee (IACUC) of the Sanford Burnham Prebys Medical Discovery Institute in accordance with national regulations. Sample size was chosen based on the prior study of NCT delivered by IP injection.
(§2) Western blotting. Mouse liver extracts were prepared by incubation in RIPA buffer (Invitrogen) containing protease inhibitors (Calbiochem, SanDiego, CA). Protein was quantified by BCA assay (Thermo Scientific). […]

SDHA = assay: Western blotting of liver, SDHA; type: in vivo, mouse; details: HFD+NCT vs HFD, FIGS. 3D-3F
Experimental: as §1, §2

[1] = test system: DNA encoding the mitochondrial genes ND1; assay: Mitochondrial DNA analysis of liver, ND1; type: in vivo; details: mouse liver, HFD+NCT vs HFD, FIG. 3K
Experimental: as §1
(§3) Quantification of mtDNA was performed. […]

[2] = test system: DNA encoding the mitochondrial genes 16s rRNA; assay: Mitochondrial DNA analysis of liver, 16s rRNA; type: in vivo; details: mouse liver, HFD+NCT vs HFD, FIG. 3L
Experimental: as §1, §3

Sirt1 mRNA [3] = assay: RT-PCR of mouse liver, Sirtuin1; type: in vivo; details: HFD+NCT vs HFD, FIG. 4D
Experimental: as §1, with “All animal experiments were approved by the Institutional Animal Care and Use Committee (IACUC) of the Sanford Burnham Prebys Medical Discovery Institute in accordance with national regulations. Sample size was chosen based on the prior study of NCT delivered by IP injection.” left out
(§4) RT-PCR. […] Quantitative real time PCR (RT-PCR) analysis was performed using SYBR® Select Master Mix (Applied Biosystems) and an ABI 7900HT thermal cycler (Applied Biosystems, Thermo Fisher Scientific). Ct values were normalized to 18s rRNA and are expressed as fold change over samples from mice fed NC or cultured human hepatocytes without NCT.

IL-6 mRNA = assay: RT-PCR of mouse liver, IL-6; type: in vivo; details: HFD+NCT vs HFD, FIG. 5A
Experimental: as §1, with “All animal experiments were approved by the Institutional Animal Care and Use Committee (IACUC) of the Sanford Burnham Prebys Medical Discovery Institute in accordance with national regulations. Sample size was chosen based on the prior study of NCT delivered by IP injection.” left out
as §4

SDHA mRNA = assay: RT-PCR of primary human hepatocytes, SDHA; type: cell-based; details: HEP-fat media, NCT 5, 15, and 40 μM, FIGS. 3I and 3J
Experimental: (§5) Primary human hepatocytes. Experiments with primary human hepatocytes were performed by CN-Bio (Cambridge, UK). Briefly, primary human hepatocytes (PHHs), human Kupffer cells (HKs) and human stellate cells (HSCs) were seeded onto CN-Bio's PhysioMimix LC12 MPS culture plates at 6×10^5 cells for PHHs and 6×10^4 cells for HKs and HSCs in 1.6 ml of CN-Bio's HEP-lean media with 5% FCS. Throughout the experiment the cells were maintained at a flow rate of 1 μl/s. After 24 hours (Day 1) of seeding, the media was changed to HEP-lean media and the cells were incubated until day 4 to allow the cells to form microtissues. At day 4 post seeding, media was changed to HEP-fat media and treated with DMSO or NCT (5, 15, and 40 μM). Media was replaced on days 6 and 8. Cells were harvested on day 10 for RNA extraction and culture media was collected for ELISA analysis.
as §4

Sirt1 mRNA [4] = assay: RT-PCR of primary human hepatocytes, Sirtuin1; type: cell-based; details: HEP-fat media, NCT 5, 15, and 40 μM, FIG. 4G
Experimental: as §5, §4

Sirt3 mRNA = assay: RT-PCR of primary human hepatocytes, Sirtuin3; type: cell-based; details: HEP-fat media, NCT 5, 15, and 40 μM, FIG. 4H
Experimental: as §5, §4

IL-6 protein = assay: ELISA of culture media of primary human hepatocytes, IL-6; type: cell-based; details: HEP-fat media, NCT 5, 15, and 40 μM, FIG. 5D
Experimental: as §5

HNF4α = molecular target: T1, HNF4α (Homo sapiens, UniProt P41235); details: cited from earlier work
T1 sequence (P41235 1-474): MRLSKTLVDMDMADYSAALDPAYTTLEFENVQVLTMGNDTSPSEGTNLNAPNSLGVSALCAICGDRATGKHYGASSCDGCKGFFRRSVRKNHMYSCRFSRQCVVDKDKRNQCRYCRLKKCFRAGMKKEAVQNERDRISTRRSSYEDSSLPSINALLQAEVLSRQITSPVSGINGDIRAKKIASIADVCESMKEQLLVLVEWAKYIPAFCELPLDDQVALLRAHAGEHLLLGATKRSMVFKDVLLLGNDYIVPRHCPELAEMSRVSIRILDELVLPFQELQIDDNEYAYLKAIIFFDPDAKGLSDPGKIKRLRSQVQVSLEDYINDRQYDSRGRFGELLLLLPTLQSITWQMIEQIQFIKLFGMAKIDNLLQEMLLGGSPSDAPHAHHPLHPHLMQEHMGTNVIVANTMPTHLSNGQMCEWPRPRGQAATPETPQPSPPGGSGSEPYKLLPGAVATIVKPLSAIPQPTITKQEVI

In the case of O=C(/C=C/c1ccc(O)c(O)c1)NCCc1ccc(O)cc1 [NCT, N-trans caffeoyltyramine], the “hepatic cytochrome C protein level” value (hepatic cytochrome C) is reported as “reverse the depression”, the “SDHA protein level in liver” value (SDHA) is reported as “reverse the depression” and the “level of DNA encoding the mitochondrial genes ND1” value [1] is reported as “increase”. The “level of DNA encoding the mitochondrial genes 16s rRNA” value [2] was “increase”, the “Sirt1 mRNA in mouse liver” value (Sirt1 mRNA [3]) was “reverse the depression” and the “IL-6 level in livers of mice on HFD” value (IL-6 mRNA) was “decreased”. The “IL-6 level in livers of mice on HFD” value (IL-6 mRNA; listed as Compound A) was “decrease”, the “SDHA mRNA in human hepatocytes” value (SDHA mRNA) was “increase” and the “Sirt1 mRNA in primary human hepatocytes” value (Sirt1 mRNA [4]) was “reverse the depression”. The “Sirt3 mRNA in primary human hepatocytes” value (Sirt3 mRNA) was “reverse the depression”, the “IL-6 protein level secreted by cultured human hepatocytes” value (IL-6 protein) was “decrease” and the “specificity for HNF4α” value (HNF4α; HNF4α siRNA ablates their effect) was “exhibit specificity for HNF4α”. For the same compound, the “activation of HNF4α, potency compared with Alverine and Benfluorex” value (HNF4α) was “much more potent activators”.
